Measured values published in patent US4043993A, “New pentapeptides and methods for their production” (Parke, Davis & Company, priority 1976, dated 1977).
Where “and” joins values, the source holds several entries; their conditions need not be identical. Equal entries are not always repeated. No end group written: not given here.

System: LRF (luteinizing hormone release factor) induced luteinizing hormone (LH) release
Experiment: LRF antagonist activity in vitro in rat anterior pituitary cell cultures
Assay type: cell-based
Excerpt: Pentapeptides of this invention were screened for LRF antagonist activity in vitro using rat anterior pituitary cell cultures as described by Vale et. al. [Endocrinology, 91, 562 (1972)]. The inhibition of LRF (luteinizing hormone release factor) induced luteinizing hormone (LH) release into the culture medium is the endpoint in this in vitro bioassay.

[1] = Molar Conc. 1×10^-6, LRF Control 2.5×10^-10
[2] = Molar Conc. 1×10^-7, LRF Control 3.5×10^-10
[3] = Molar Conc. 2.5×10^-7, LRF Control 3.5×10^-10
[4] = Molar Conc. 6×10^-7, LRF Control 3.5×10^-10
[5] = Molar Conc. 6×10^-8, LRF Control 3.5×10^-10

| Substance | LH Value (LRF alone (LRF Control), Molar Conc. 2.5×10^-10) | LH Value (LRF alone (LRF Control), Molar Conc. 3.5×10^-10) | % LH Release Inhibition [1] | LH Value [1] | % LH Release Inhibition [2] | LH Value [2] | % LH Release Inhibition [3] | LH Value [3] | % LH Release Inhibition [4] | LH Value [4] | % LH Release Inhibition [5] | LH Value [5] |
| --- | --- | --- | --- | --- | --- | --- | --- | --- | --- | --- | --- | --- |
| LRF: luteinizing hormone releasing factor, also referred to as luteinizing hormone releasing hormone, or LH-RH; stimulates secretion of luteinizing hormone (QHWSYGLRPG; ends and bridges not checked; UniProt P01148 24-33, looked up) [reference compound] | 38.98 ng/mL | 33.78 ng/mL and 41.70 ng/mL and 58.17 ng/mL and 42.57 ng/mL |  |  |  |  |  |  |  |  |  |  |
| N-Benzyloxycarbonyl-D-2-azetidinecarbonyl-N^im -benzyl-L-histidyl-O-benzyl-L-tyrosyl-O-benzyl-L-seryl-D-alanine methyl ester |  |  | 102% | 5.72 ng/mL | 53% | 33.60 ng/mL | 78% | 22.34 ng/mL | 89% | 17.18 ng/mL | 29% | 44.92 ng/mL |
